Converted amounts (≈) assume the structure as drawn.
Experiments:
[1] = Cytotoxicity against LPS-induced human monocytes assessed as cell viability at 50 uM by tryphan blue staining based assay relative to control; set-up: species or system Monocyte; conditions: read-out: Activity
Monocyte [2] = assay: Antiinflammatory activity in human monocytes assessed as inhibition of LPS-induced TNFaplha production preincubated for 15 mins followed by LPS addition and measured after 4 hrs by ELISA; format: functional, cell-based
Monocyte [3] = assay: Antiinflammatory activity in human monocytes assessed as inhibition of LPS-induced TNFaplha production at 50 uM preincubated for 15 mins followed by LPS addition and measured after 4 hrs by ELISA relative to control; format: functional
[4] = Selectivity index, ratio of IC50 for African green monkey Vero cells to MIC for antitubercular activity against Mycobacterium tuberculosis H37Rv; format: toxicity; conditions: Vero cells, read-out: Selectivity Index
[5] = system: Mycobacterium tuberculosis; assay: Antitubercular activity against Mycobacterium tuberculosis H37Rv ATCC 27294 assessed as inhibition of [3H]-thymidine incorporation at 1 ug/ml relative to control; format: functional
[6] = system: Mycobacterium tuberculosis; assay: Antitubercular activity against Mycobacterium tuberculosis H37Rv ATCC 27294 assessed as growth inhibition at 6.25 ug/ml by microplate alamar blue assay relative to control; format: functional
Mycobacterium leprae [7] = assay: Anti-leprotic activity against Mycobacterium leprae infected in BALB/c mouse assessed as time delay in bacterial multiplication in footpad at 0.011 g/100g of diet administered via feed starting 60 or 75 day post infection up to 90 days by Shepard's kinetic method; format: functional
Mycobacterium leprae [8] = assay: Anti-leprotic activity against Mycobacterium leprae infected in BALB/c mouse assessed as time delay in bacterial multiplication in footpad at 0.008 g/100g of diet administered via feed starting 60 or 75 day post infection up to 90 days by Shepard's kinetic method; format: functional
Mycobacterium leprae [9] = assay: Anti-leprotic activity against Mycobacterium leprae infected in BALB/c mouse assessed as time delay in bacterial multiplication in footpad at 0.0087 g/100g of diet administered via feed starting 60 or 75 day post infection up to 90 days by Shepard's kinetic method; format: functional
Klebsiella pneumoniae = assay: Antimicrobial activity against Klebsiella pneumoniae 700603 by broth microdilution assay; format: functional
[10] = system: Mycobacterium tuberculosis; assay: Antitubercular activity against Mycobacterium tuberculosis H37Rv ATCC 27294 incubated for 7 days by microplate alamar blue assay; format: functional; conditions: H37Rv ATCC 27294, 168 h
Staphylococcus aureus = assay: Antimicrobial activity against Staphylococcus aureus ATCC 25923 by broth microdilution assay; format: functional
Nakaseomyces glabratus = assay: Antifungal activity against Candida glabrata; format: functional
Escherichia coli [11] = assay: Antimicrobial activity against Escherichia coli ATCC 35218 by broth microdilution assay; format: functional
Pseudomonas aeruginosa = assay: Antimicrobial activity against Pseudomonas aeruginosa ATCC 27853 by broth microdilution assay; format: functional
Listeria monocytogenes = assay: Antimicrobial activity against Listeria monocytogenes ATCC 1911 by broth microdilution assay; format: functional
Enterococcus faecalis [12] = assay: Antimicrobial activity against Enterococcus faecalis ATCC 51922 by broth microdilution assay; format: functional
Escherichia coli [13] = assay: Antimicrobial activity against Escherichia coli ATCC 25922 by broth microdilution assay; format: functional
Enterococcus faecalis [14] = assay: Antimicrobial activity against Enterococcus faecalis ATCC 29212 by broth microdilution assay; format: functional
Mycobacterium leprae [15] = assay: Anti-leprotic activity against Mycobacterium leprae subcultures at 4 weeks assessed as ATP level per 10^7 cells at 10.0 mg/L measured by bioluminescence assay (reference value: 462 +/- 64 pg); format: functional
Mycobacterium leprae [16] = assay: Anti-leprotic activity against Mycobacterium leprae subcultures at 4 weeks assessed as [3H]thymidine uptake per 5 times 10^7 cells at 20.0 mg/L (reference value: 1.28 +/- 0.14 pmol); format: functional
Mycobacterium leprae [17] = assay: Anti-leprotic activity against Mycobacterium leprae subcultures at 4 weeks assessed as [3H]thymidine uptake per 5 times 10^7 cells at 5.0 mg/L (reference value: 1.28 +/- 0.14 pmol); format: functional
Mycobacterium leprae [18] = assay: Anti-leprotic activity against Mycobacterium leprae primary cultures at 4 weeks assessed as [3H]thymidine uptake per 5 times 10^7 cells at 10.0 mg/L (reference value: 0.95 +/- 0.01 pmol); format: functional
Mycobacterium leprae [19] = assay: Anti-leprotic activity against Mycobacterium leprae primary cultures at 4 weeks assessed as [3H]thymidine uptake per 5 times 10^7 cells at 1.0 mg/L (reference value: 0.95 +/- 0.01 pmol); format: functional
Mycobacterium leprae [20] = assay: Anti-leprotic activity against Mycobacterium leprae primary cultures at 4 weeks assessed as ATP level per 10^7 cells at 1.0 mg/L measured by bioluminescence assay (reference value: 314 +/- 46 pg); format: functional
Mycobacterium leprae [21] = assay: Anti-leprotic activity against Mycobacterium leprae primary cultures at 4 weeks assessed as ATP level per 10^7 cells at 15.0 mg/L measured by bioluminescence assay (reference value: 314 +/- 46 pg); format: functional
Mycobacterium leprae [22] = assay: Anti-leprotic activity against Mycobacterium leprae primary cultures at 4 weeks assessed as [3H]thymidine uptake per 5 times 10^7 cells at 20.0 mg/L (reference value: 0.95 +/- 0.01 pmol); format: functional
Mycobacterium leprae [23] = assay: Anti-leprotic activity against Mycobacterium leprae subcultures at 4 weeks assessed as [3H]thymidine uptake per 5 times 10^7 cells at 15.0 mg/L (reference value: 1.28 +/- 0.14 pmol); format: functional
Mycobacterium leprae [24] = assay: Anti-leprotic activity against Mycobacterium leprae primary cultures at 4 weeks assessed as [3H]thymidine uptake per 5 times 10^7 cells at 0.5 mg/L (reference value: 0.95 +/- 0.01 pmol); format: functional
Mycobacterium leprae [25] = assay: Anti-leprotic activity against Mycobacterium leprae subcultures at 4 weeks assessed as [3H]thymidine uptake per 5 times 10^7 cells at 10.0 mg/L (reference value: 1.28 +/- 0.14 pmol); format: functional
Mycobacterium leprae [26] = assay: Anti-leprotic activity against Mycobacterium leprae subcultures at 4 weeks assessed as ATP level per 10^7 cells at 20.0 mg/L measured by bioluminescence assay (reference value: 462 +/- 64 pg); format: functional
Mycobacterium leprae [27] = assay: Anti-leprotic activity against Mycobacterium leprae primary cultures at 4 weeks assessed as ATP level per 10^7 cells at 5.0 mg/L measured by bioluminescence assay (reference value: 314 +/- 46 pg); format: functional
Mycobacterium leprae [28] = assay: Anti-leprotic activity against Mycobacterium leprae primary cultures at 4 weeks assessed as [3H]thymidine uptake per 5 times 10^7 cells at 5.0 mg/L (reference value: 0.95 +/- 0.01 pmol); format: functional
Mycobacterium leprae [29] = assay: Anti-leprotic activity against Mycobacterium leprae subcultures at 4 weeks assessed as [3H]thymidine uptake per 5 times 10^7 cells at 0.5 mg/L (reference value: 1.28 +/- 0.14 pmol); format: functional
Mycobacterium leprae [30] = assay: Anti-leprotic activity against Mycobacterium leprae subcultures at 4 weeks assessed as ATP level per 10^7 cells at 0.5 mg/L measured by bioluminescence assay (reference value: 462 +/- 64 pg); format: functional
Mycobacterium leprae [31] = assay: Anti-leprotic activity against Mycobacterium leprae primary cultures at 4 weeks assessed as ATP level per 10^7 cells at 10.0 mg/L measured by bioluminescence assay (reference value: 314 +/- 46 pg); format: functional
Mycobacterium leprae [32] = assay: Anti-leprotic activity against Mycobacterium leprae primary cultures at 4 weeks assessed as [3H]thymidine uptake per 5 times 10^7 cells at 15.0 mg/L (reference value: 0.95 +/- 0.01 pmol); format: functional
Mycobacterium leprae [33] = assay: Anti-leprotic activity against Mycobacterium leprae primary cultures at 4 weeks assessed as ATP level per 10^7 cells at 20.0 mg/L measured by bioluminescence assay (reference value: 314 +/- 46 pg); format: functional
Mycobacterium leprae [34] = assay: Anti-leprotic activity against Mycobacterium leprae subcultures at 4 weeks assessed as ATP level per 10^7 cells at 1.0 mg/L measured by bioluminescence assay (reference value: 462 +/- 64 pg); format: functional
Mycobacterium leprae [35] = assay: Anti-leprotic activity against Mycobacterium leprae subcultures at 4 weeks assessed as ATP level per 10^7 cells at 5.0 mg/L measured by bioluminescence assay (reference value: 462 +/- 64 pg); format: functional
Mycobacterium leprae [36] = assay: Anti-leprotic activity against Mycobacterium leprae primary cultures at 4 weeks assessed as ATP level per 10^7 cells at 0.5 mg/L measured by bioluminescence assay (reference value: 314 +/- 46 pg); format: functional
Mycobacterium leprae [37] = assay: Anti-leprotic activity against Mycobacterium leprae subcultures at 4 weeks assessed as ATP level per 10^7 cells at 15.0 mg/L measured by bioluminescence assay (reference value: 462 +/- 64 pg); format: functional
Mycobacterium leprae [38] = assay: Anti-leprotic activity against Mycobacterium leprae subcultures at 4 weeks assessed as [3H]thymidine uptake per 5 times 10^7 cells at 1.0 mg/L (reference value: 1.28 +/- 0.14 pmol); format: functional
Mycobacterium leprae [39] = assay: Antimicrobial activity against Mycobacterium leprae; format: functional
Mycobacterium leprae [40] = assay: Anti-leprotic activity against Mycobacterium leprae infected in BALB/c mouse assessed as time delay in bacterial multiplication in footpad at 0.0045 g/100g of diet administered via feed starting 60 or 75 day post infection up to 90 days by Shepard's kinetic method; format: functional
Mycobacterium leprae [41] = assay: Anti-leprotic activity against Mycobacterium leprae infected in BALB/c mouse assessed as time delay in bacterial multiplication in footpad at 0.012 g/100g of diet administered via feed starting 60 or 75 day post infection up to 90 days by Shepard's kinetic method; format: functional

## CCC1(N2C(=O)c3cccc([N+](=O)[O-])c3C2=O)C(=O)NC(=O)N(c2ccccc2)C1=O (configuration not stated)
[1]
  viability at 50 µM: 77%
Monocyte [2]
  IC50: 3000 µM
Monocyte [3]
  inhibition at 50 µM: < 10%

## c1ccc(Cn2cnc3c(-c4cccs4)ncnc32)cc1
[4]
  selectivity ratio: > 1.6
[5]
  inhibition at 1 µg/mL: < 10%
[6]
  inhibition at 6.25 µg/mL: > 90%

## c1ccc(Cn2cnc3c(-c4ccccc4)ncnc32)cc1
[5]
  inhibition at 1 µg/mL: < 10%

## CC(=O)Nc1ccc(S(=O)(=O)c2ccc(NC(C)=O)cc2O)cc1
Mycobacterium leprae [7]
  Time: 126 days

## Nc1ccc(Cc2ccc(N)cc2)cc1
Mycobacterium leprae [8]
  Time: <10 days

## Nc1ccc(Sc2ccc(N)cc2)cc1 [4,4'-THIODIANILINE]
Mycobacterium leprae [9]
  Time: 68 days

## O=[N+]([O-])c1ccc(/C=N/NC(=S)Nc2ccc(C(F)(F)F)cc2)cc1
Klebsiella pneumoniae
  MIC: 400 µg/mL (≈ 1090 µM)
[10]
  MIC: 400 µg/mL (≈ 1090 µM)
Staphylococcus aureus
  MIC: 400 µg/mL (≈ 1090 µM)
Nakaseomyces glabratus
  MIC: 200 µg/mL (≈ 543 µM)
Escherichia coli [11]
  MIC: 400 µg/mL (≈ 1090 µM)
Pseudomonas aeruginosa
  MIC: 400 µg/mL (≈ 1090 µM)
Listeria monocytogenes
  MIC: 400 µg/mL (≈ 1090 µM)
Enterococcus faecalis [12]
  MIC: 400 µg/mL (≈ 1090 µM)
Escherichia coli [13]
  MIC: 400 µg/mL (≈ 1090 µM)
Enterococcus faecalis [14]
  MIC: 100 µg/mL (≈ 271 µM)

## CCOc1cc(Cc2cnc(N)nc2N)cc(OCC)c1-n1cccc1 [EPIROPRIM]
Mycobacterium leprae [15]
  Activity: 0 pg
Mycobacterium leprae [16]
  Activity: 0 pmol
Mycobacterium leprae [17]
  Activity: 0.88 pmol
Mycobacterium leprae [18]
  Activity: 0 pmol
Mycobacterium leprae [19]
  Activity: 1.44 pmol
Mycobacterium leprae [20]
  Activity: 331 pg
Mycobacterium leprae [21]
  Activity: 0 pg
Mycobacterium leprae [22]
  Activity: 0 pmol
Mycobacterium leprae [23]
  Activity: 0 pmol
Mycobacterium leprae [24]
  Activity: 1.12 pmol
Mycobacterium leprae [25]
  Activity: 0 pmol
Mycobacterium leprae [26]
  Activity: 0 pg
Mycobacterium leprae [27]
  Activity: 283 pg
Mycobacterium leprae [28]
  Activity: 0.73 pmol
Mycobacterium leprae [29]
  Activity: 0.413 pmol
Mycobacterium leprae [30]
  Activity: 0.82 pg
Mycobacterium leprae [31]
  Activity: 0 pg
Mycobacterium leprae [32]
  Activity: 0 pmol
Mycobacterium leprae [33]
  Activity: 0 pg
Mycobacterium leprae [34]
  Activity: 0.95 pg
Mycobacterium leprae [35]
  Activity: 317 pg
Mycobacterium leprae [36]
  Activity: 325 pg
Mycobacterium leprae [37]
  Activity: 0 pg
Mycobacterium leprae [38]
  Activity: 0.45 pmol
Mycobacterium leprae [39]
  MIC: 10 µg/mL (≈ 28.3 µM)

## Nc1ccc([S+]([O-])c2ccc(N)cc2)cc1
Mycobacterium leprae [40]
  Time: 90 days

## CC(=O)Nc1ccc(S(=O)(=O)c2ccc(NC(C)=O)cc2Cl)cc1
Mycobacterium leprae [41]
  Time: 85 days
